This note sets out measurements from BindingDB's records for doi:10.7270/Q2SB445M (Nmmlsc, 2009).

The target of this assay is Ras-related protein Rab-7a (Canis lupus familiaris, UniProt P18067). Kind of assay: Rab7 GTP binding inhibitors, further analogs, SAR follow-up, biochemical, additional analogs, wildtype, multiplex bead flow cytometry (AID 2036).
Ras-related protein Rab-7a, sequence (P18067 whole entry): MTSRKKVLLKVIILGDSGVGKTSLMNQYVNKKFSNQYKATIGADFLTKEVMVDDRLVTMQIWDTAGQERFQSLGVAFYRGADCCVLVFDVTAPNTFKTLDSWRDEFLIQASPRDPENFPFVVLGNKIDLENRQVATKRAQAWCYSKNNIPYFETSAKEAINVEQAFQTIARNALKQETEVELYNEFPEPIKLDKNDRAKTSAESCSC

For `O=C1Nc2c(F)cccc2C1=C1Nc2ccccc2C1=O`, affinity was put at a Ki of 1.56 µM.

The molecule `O=C1NC(=S)N/C1=C1\C(=O)Nc2ccccc21` [(3Z)-3-(5-oxo-2-sulfanylideneimidazolidin-4-ylidene)-1H-indol-2-one] had a Ki of 0.87 µM.
